Biological target: T1, CYP110 (Nostoc sp. PCC 7120 = FACHB-418, UniProt P29980)
T1 construct: recombinant, expressed in E. coli from pUC8 vector, purified soluble fraction; about 50 kDa; U38537 is the complete nifD element carrying cyp110
T1 sequence (P29980 1-459): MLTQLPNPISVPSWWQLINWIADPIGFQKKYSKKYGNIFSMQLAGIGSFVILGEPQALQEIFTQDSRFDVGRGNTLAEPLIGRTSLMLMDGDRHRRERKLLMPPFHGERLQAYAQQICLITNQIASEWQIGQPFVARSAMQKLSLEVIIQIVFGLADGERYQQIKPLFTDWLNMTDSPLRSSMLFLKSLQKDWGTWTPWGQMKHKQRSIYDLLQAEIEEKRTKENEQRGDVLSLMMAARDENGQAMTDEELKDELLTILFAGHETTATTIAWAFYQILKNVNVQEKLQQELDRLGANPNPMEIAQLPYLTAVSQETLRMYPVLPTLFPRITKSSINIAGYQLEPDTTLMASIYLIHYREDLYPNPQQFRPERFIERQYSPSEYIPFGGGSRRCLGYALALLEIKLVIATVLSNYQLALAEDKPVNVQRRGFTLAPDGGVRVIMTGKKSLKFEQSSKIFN
Test: UV-visible spectral shift titration
Type: binding
Conditions: read-out: Ks
Source text: UV-visible spectral shift titration on CYP110

Row | SMILES | Kd
1 | CC/C=C\C/C=C\C/C=C\CCCCCCCC(=O)O [9,12,15-Octadecatrienoic Acid] | 62 µM
2 | CCCCCC=CCC=CCCCCCCCC(=O)O [9,12-Octadecadienoic Acid] | 720 µM
3 | CCCCC/C=C\C/C=C\C/C=C\C/C=C\CCCC(=O)O [Arachidonic Acid] | 51 µM
4 | CCCCCCCCCCN [Decyl Amine] | 41 µM
5 | CCCCCCCCCCCCCCCCC(=O)O [Heptadecanoic Acid] | 1100 µM
6 | CCCCCCCN [Heptyl Amine] | 102 µM
7 | CCCCCCCCCCCCCCCC(=O)O [Hexadecanoic Acid] | 500 µM
8 | CCCCCCN [Hexyl Amine] | 320 µM
9 | CCCCCCCCCN [Nonyl Amine] | 62 µM
10 | CCCCCCCCCCCCCCCCCC(=O)O [Octadecanoic Acid] | 3100 µM
11 | CCCCCCCCCCCCCCC(=O)O [Pentadecanoic Acid] | 210 µM
12 | CCCCCN [Pentyl Amine] | 540 µM
13 | CCCCCCCCCCCCC(=O)O [Tridecanoic Acid] | 850 µM

Next, values leading:

Row | Kd | SMILES
14 | 416 µM | NCCCCCCCCCCCC(=O)O [12-Aminododecanoic Acid]
15 | 1900 µM | CCCCCCCCCCCC(=O)O [Dodecanoic Acid]
16 | 12 µM | CCCCCCCCCCCCN [Dodecyl Amine]
17 | 2210 µM | CCCCCCCCCCCC(N)=O [Lauryl Amide]
18 | 2560 µM | CCCCCCCCCCCC(=O)NC [N-methyl Lauryl Amide]
19 | 81 µM | CCCCCCCCN [Ocytl Amine]
20 | 91 µM | CCCCCCCCCCCCCC(=O)O [Tetradecanoic Acid]

— publication PMC1079853, “Alkane-induced expression, substrate binding profile, and immunolocalization of a cytochrome P450 encoded on the nifD excision element of Anabaena 7120” (BMC Microbiology, 2005)
